This note sets out measurements from patent US9745283B2, “Uracil derivatives as AXL and c-MET kinase inhibitors” (priority 2011, dated 2017).

SMILES strings stand for the structures. A value given as a limit tells only on which side of the number the result lay.

This experiment concerns the target recombinant human baculovirus-expressed cMET (Homo sapiens (Human), UniProt P08581). Kind of experiment: C-MET Kinase Assay (HTRF KinEASE). The class given is biochemical. The settings on record: average of two or more determinations; read-out: c-MET IC50. The procedure:
The cMET kinase assay was performed in 384-well Fluotrac™ 200 HiBase microplates using the HTRF KinEASE™ assay described above for AXL except that the assay volume was reduced to half. Enzyme concentration was 8 ng/mL of recombinant human baculovirus-expressed cMET while the substrate concentrations were 0.1 μM and 0.02 μM for the biotinylated peptide and ATP, respectively. Instead of the Multidrop Combi, the BioRAPTR® FRD microfluidic workstation (Beckman Coulter, Brea, Calif.) was utilized for reagent additions.
Inhibition curves for compounds were generated by plotting percent control activity versus log 10 of the concentration of compound. IC50 values were calculated by nonlinear regression using the sigmoidal dose-response (variable slope) equation in GraphPad Prism as follows: y=bottom+(top−bottom)/(1+10(log IC50−x)*Hill Slope) where y is the % kinase activity at a given concentration of compound, x is the logarithm of the concentration of compound, bottom is the % of control kinase activity at the highest compound concentration tested, and top is the % of control kinase activity at the lowest compound concentration examined. The values for bottom and top were fixed at 0 and 100, respectively.
(Time-resolved FRET reads energy transfer from a long-lived donor to a nearby acceptor.)
A word on the IC50: it is the point on the concentration scale where inhibition reaches its midpoint. On to `COc1cc2nccc(Oc3ccc(NC(=O)c4cn(CCOCc5ccccc5)c(=O)n(-c5ccc(F)cc5)c4=O)cc3F)c2cc1OC` [Example 10, 1-(2-Benzyloxyethyl)-3-(4-fluorophenyl)-2,4-dioxo-1,2,3,4-tetrahydropyrimidine-5-carboxylic acid [4-(6,7-dimethoxyquinolin-4-yloxy)-3-fluorophenyl]-amide], for which the IC50 was in the range of 10 to 100 nM. In the case of `COc1cc2nccc(Oc3ccc(NC(=O)c4cn(CCOC(C)C)c(=O)n(-c5ccc(F)cc5)c4=O)cc3F)c2cc1OC` [Example 12, 3-(4-Fluorophenyl)-1-(2-isopropoxyethyl)-2,4-dioxo-1,2,3,4-tetrahydropyrimidine-5-carboxylic acid [4-(6,7-dimethoxyquinolin-4-yloxy)-3-fluorophenyl]-amide], the IC50 is 10 to 100 nM.

In the case of `COc1cc2nccc(Oc3ccc(NC(=O)c4cn(CCCOCc5ccccc5)c(=O)n(-c5ccc(F)cc5)c4=O)cc3F)c2cc1OC` [Example 13, 1-(3-Benzyloxypropyl)-3-(4-fluorophenyl)-2,4-dioxo-1,2,3,4-tetrahydropyrimidine-5-carboxylic acid [4-(6,7-dimethoxyquinolin-4-yloxy)-3-fluorophenyl]-amide], the IC50 lay in the range of 10 to 100 nM. In the case of `COc1cc2nccc(Oc3ccc(NC(=O)c4cn(CC=C(C)C)c(=O)n(-c5ccc(F)cc5)c4=O)cc3F)c2cc1OC` [Example 15, 3-(4-Fluorophenyl)-1-(3-methyl-but-2-enyl)-2,4-dioxo-1,2,3,4-tetrahydropyrimidine-5-carboxylic acid [4-(6,7-dimethoxyquinolin-4-yloxy)-3-fluorophenyl]-amide] it was 10 to 100 nM.

Consider `COc1cc2nccc(Oc3ccc(NC(=O)c4cn(CCOCc5ccccc5)c(=O)n(-c5ccc(F)cc5)c4=O)cc3)c2cc1OC` [Example 19, 1-(2-Benzyloxyethyl)-3-(4-fluoro-phenyl)-2,4-dioxo-1,2,3,4-tetrahydropyrimidine-5-carboxylic acid [4-(6,7-dimethoxyquinolin-4-yloxy)-phenyl]-amide], for which the IC50 was in the range of 10 to 100 nM.

`CCn1cc(C(=O)Nc2ccc(Oc3ccnc4cc(OC)c(OC)cc34)c(F)c2)c(=O)n(C2CCCCC2)c1=O` [Example 25, 3-Cyclohexyl-1-ethyl-2,4-dioxo-1,2,3,4-tetrahydropyrimidine-5-carboxylic acid [4-(6,7-dimethoxyquinolin-4-yloxy)-3-fluorophenyl]-amide]: the IC50 lay in the range of 101 to 1000 nM. As for `COc1cc2nccc(Oc3ccc(NC(=O)c4cn(CC5CC5)c(=O)n(-c5ccc(F)cc5)c4=O)nc3)c2cc1OC` [Example 35, 1-Cyclopropylmethyl-3-(4-fluorophenyl)-2,4-dioxo-1,2,3,4-tetrahydropyrimidine-5-carboxylic acid [5-(6,7-dimethoxyquinolin-4-yloxy)pyridin-2-yl]-amide], the IC50 lay in the range of 10 to 100 nM. Consider `CCCCCn1cc(C(=O)Nc2ccc(Oc3ccnc4cc(OC)c(OC)cc34)c(F)c2)c(=O)n(-c2ccc(F)cc2)c1=O` [Example 36, 3-(4-Fluorophenyl)-2,4-dioxo-1-pentyl-1,2,3,4-tetrahydropyrimidine-5-carboxylic acid [4-(6,7-dimethoxyquinolin-4-yloxy)-3-fluorophenyl]-amide], for which the 50% inhibitory concentration (IC50) lay in the range of 10 to 100 nM. Take `CCOc1cc2nccc(Oc3ccc(NC(=O)c4cn(C(C)C)c(=O)n(-c5ccc(F)cc5)c4=O)cc3F)c2cc1OCC` [Example 37, 3-(4-Fluorophenyl)-1-isopropyl-2,4-dioxo-1,2,3,4-tetrahydropyrimidine-5-carboxylic acid [4-(6,7-diethoxyquinolin-4-yloxy)-3-fluoro-phenyl]-amide]: the 50% inhibitory concentration (IC50) lay within 101 to 1000 nM.

Consider `CCn1cc(C(=O)Nc2ccc(Oc3ccnc4cc(OCc5ccccc5)c(OC)cc34)c(F)c2)c(=O)n(-c2ccc(F)cc2)c1=O` [Example 40, 1-Ethyl-3-(4-fluorophenyl)-2,4-dioxo-1,2,3,4-tetrahydropyrimidine-5-carboxylic acid [4-(7-benzyloxy-6-methoxyquinolin-4-yloxy)-3-fluorophenyl]-amide], for which the IC50 lay in the range of 10 to 100 nM. On to `COc1cc2c(Oc3ccc(NC(=O)c4cn(C(C)C)c(=O)n(-c5ccc(F)cc5)c4=O)cc3F)ccnc2cc1OCc1ccccc1` [Example 41, 3-(4-Fluorophenyl)-1-isopropyl-2,4-dioxo-1,2,3,4-tetrahydropyrimidine-5-carboxylic acid [4-(7-benzyloxy-6-methoxyquinolin-4-yloxy)-3-fluorophenyl]-amide], for which the IC50 was in the range of 101 to 1000 nM. In the case of `CCn1cc(C(=O)Nc2ccc(Oc3ccnc4cc(O)c(OC)cc34)c(F)c2)c(=O)n(-c2ccc(F)cc2)c1=O` [Example 42, 1-Ethyl-3-(4-fluorophenyl)-2,4-dioxo-1,2,3,4-tetrahydropyrimidine-5-carboxylic acid [3-fluoro-4-(7-hydroxy-6-methoxyquinolin-4-yloxy)phenyl]-amide] it was 10 to 100 nM.

For `CCn1cc(C(=O)Nc2ccc(Oc3ccnc4cc(OCCCN5CCOCC5)c(OC)cc34)c(F)c2)c(=O)n(-c2ccc(F)cc2)c1=O` [Example 43, 1-Ethyl-3-(4-fluorophenyl)-2,4-dioxo-1,2,3,4-tetrahydropyrimidine-5-carboxylic acid {3-fluoro-4-[6-methoxy-7-(3-morpholin-4-yl-propoxy)quinolin-4-yloxy]phenyl}-amide], the IC50 was 10 to 100 nM. With `CCn1cc(C(=O)Nc2ccc(Oc3ccnc4cc(OCCOC)c(OC)cc34)c(F)c2)c(=O)n(-c2ccc(F)cc2)c1=O` [Example 44, 1-Ethyl-3-(4-fluorophenyl)-2,4-dioxo-1,2,3,4-tetrahydropyrimidine-5-carboxylic acid {3-fluoro-4-[6-methoxy-7-(2-methoxyethoxy)quinolin-4-yloxy]-phenyl}-amide], the IC50 lay in the range of 10 to 100 nM. As for `CCn1cc(C(=O)Nc2ccc(Oc3ccnc4cc(OCCN5CCOCC5)c(OC)cc34)c(F)c2)c(=O)n(-c2ccc(F)cc2)c1=O` [Example 45, 1-Ethyl-3-(4-fluorophenyl)-2,4-dioxo-1,2,3,4-tetrahydropyrimidine-5-carboxylic acid {3-fluoro-4-[6-methoxy-7-(2-morpholin-4-yl-ethoxy)-quinolin-4-yloxy]phenyl}-amide], the IC50 is 10 to 100 nM. Then `COc1cc2c(Oc3ccc(NC(=O)c4cn(C(C)C)c(=O)n(-c5ccc(F)cc5)c4=O)cc3F)ccnc2cc1O` [Example 46, 3-(4-Fluorophenyl)-1-isopropyl-2,4-dioxo-1,2,3,4-tetrahydropyrimidine-5-carboxylic acid [3-fluoro-4-(7-hydroxy-6-methoxyquinolin-4-yloxy)-phenyl]-amide], with below 10 nM. In the case of `COc1cc2c(Oc3ccc(NC(=O)c4cn(C(C)C)c(=O)n(-c5ccc(F)cc5)c4=O)cc3F)ccnc2cc1OCCCN1CCOCC1` [Example 47, 3-(4-Fluorophenyl)-1-isopropyl-2,4-dioxo-1,2,3,4-tetrahydropyrimidine-5-carboxylic acid {3-fluoro-4-[6-methoxy-7-(3-morpholin-4-yl-propoxy)-quinolin-4-yloxy]phenyl}-amide] it was 10 to 100 nM. Take `CCn1cc(C(=O)N(C)c2ccc(Oc3ccnc4cc(OC)c(OC)cc34)c(F)c2)c(=O)n(-c2ccc(F)cc2)c1=O` [Example 48, 1-Ethyl-3-(4-fluorophenyl)-2,4-dioxo-1,2,3,4-tetrahydropyrimidine-5-carboxylic acid [4-(6,7-dimethoxyquinolin-4-yloxy)-3-fluoro-phenyl]-methyl-amide]: the IC50 fell in the range of 101 to 1000 nM. `COc1cc2nccc(Oc3ccc(NC(=O)c4cn(CCCCO)c(=O)n(-c5ccc(F)cc5)c4=O)cc3F)c2cc1OC` [Example 55, 3-(4-Fluorophenyl)-1-(4-hydroxybutyl)-2,4-dioxo-1,2,3,4-tetrahydropyrimidine-5-carboxylic acid [4-(6,7-dimethoxyquinolin-4-yloxy)-3-fluorophenyl]-amide]: the IC50 lay in the range of 10 to 100 nM.

Regarding `COc1cc2nccc(Oc3ccc(NC(=O)c4cn(C(C)C)c(=O)n(-c5ccc(F)cc5)c4=O)cc3)c2cc1C#N` [Example 56, 3-(4-Fluorophenyl)-1-isopropyl-2,4-dioxo-1,2,3,4-tetrahydropyrimidine-5-carboxylic acid [4-(6-cyano-7-methoxy-quinolin-4-yloxy)-phenyl]-amide], the IC50 fell in the range of 10 to 100 nM. As to `CCn1cc(C(=O)Nc2ccc(Oc3ccnc4cc(OC)c(OC)cc34)c(C3CC3)c2)c(=O)n(-c2ccc(F)cc2)c1=O` [Example 59, 1-Ethyl-3-(4-fluoro-phenyl)-2,4-dioxo-1,2,3,4-tetrahydropyrimidine-5-carboxylic acid [3-cyclopropyl-4-(6,7-dimethoxy-quinolin-4-yloxy)-phenyl]-amide], the IC50 was 10 to 100 nM. As to `COc1cc2nccc(Oc3ccc(NC(=O)c4cn(C(C)C)c(=O)n(-c5ccc(F)cc5)c4=O)cc3C3CC3)c2cc1OC` [Example 60, 3-(4-Fluoro-phenyl)-1-isopropyl-2,4-dioxo-1,2,3,4-tetrahydro-pyrimidine-5-carboxylic acid [3-cyclopropyl-4-(6,7-dimethoxy-quinolin-4-yloxy)-phenyl]-amide], the IC50 lay in the range of 101 to 1000 nM. `COc1cc2nccc(Oc3ccc(NC(=O)c4cn(CC(=O)OC(C)(C)C)c(=O)n(-c5ccc(F)cc5)c4=O)cc3F)c2cc1OC` [Example 70, [5-[4-(6,7-Dimethoxy-quinolin-4-yloxy)-3-fluoro-phenylcarbamoyl]-3-(4-fluoro-phenyl)-2,4-dioxo-3,4-dihydro-2H-pyrimidin-1-yl]-acetic acid tert-butyl ester]: the 50% inhibitory concentration (IC50) lay in the range of 10 to 100 nM.
